Reference: the NIST ThermoML archive (doi:10.1016/j.jct.2017.03.022)
Numbers after ± are expanded uncertainties.

Assay: xn = mol fraction of the nth substance listed
Settings: 101 kPa, Liquid; for speed of sound: Frequency=3 MHz, Single path-length method; for mass density: Vibrating tube method

O=C1CCCN1 [2-pyrrolidinone] + CC(O)CO
Settings	mass density, 303.15 K [kg/m3]	mass density, 308.15 K [kg/m3]	mass density, 313.15 K [kg/m3]	mass density, 318.15 K [kg/m3]	mass density, 323.15 K [kg/m3]	speed of sound, 303.15 K [m/s]	speed of sound, 308.15 K [m/s]	speed of sound, 313.15 K [m/s]	speed of sound, 318.15 K [m/s]	speed of sound, 323.15 K [m/s]
x1 = 0.0994	1038.42 ± 1.1	1034.26 ± 1	1030.26 ± 1	1026.14 ± 1	1021.99 ± 1	1511.8 ± 1.3	1497.1 ± 1.3	1482.2 ± 1.3	1467.6 ± 1.3	1453 ± 1.3
x1 = 0.1962	1047.15 ± 1	1042.74 ± 1	1038.53 ± 1	1034.14 ± 1	1029.74 ± 1	1526.8 ± 1.3	1511.5 ± 1.3	1496.4 ± 1.3	1481.6 ± 1.3	1466.5 ± 1.3
x1 = 0.3038	1056.3 ± 1	1051.69 ± 1	1047.29 ± 1	1042.69 ± 1	1038.13 ± 1	1543.7 ± 1.3	1528.1 ± 1.3	1512.5 ± 1.3	1497.3 ± 1.3	1481.7 ± 1.3
x1 = 0.4148	1065.17 ± 1	1060.55 ± 1	1055.91 ± 1	1051.2 ± 1	1046.49 ± 1	1560.1 ± 1.3	1544.3 ± 1.3	1528.5 ± 1.3	1513.2 ± 1.3	1497.3 ± 1.3
x1 = 0.5021	1071.72 ± 1	1067.1 ± 1	1062.38 ± 1	1057.63 ± 1	1052.9 ± 1	1571.9 ± 1.3	1555.9 ± 1.3	1540 ± 1.3	1524.6 ± 1.3	1508.5 ± 1.3
x1 = 0.5951	1078.36 ± 1	1073.71 ± 1	1069.03 ± 1	1064.29 ± 1	1059.57 ± 1	1583.5 ± 1.3	1567.3 ± 1.3	1551.2 ± 1.3	1535.7 ± 1.3	1519.4 ± 1.3
x1 = 0.6891	1084.67 ± 1	1080.01 ± 1	1075.46 ± 1	1070.79 ± 1	1066.14 ± 1	1594.1 ± 1.2	1577.5 ± 1.2	1561.4 ± 1.2	1545.9 ± 1.2	1529.3 ± 1.2
x1 = 0.7994	1091.64 ± 1	1087.08 ± 1	1082.66 ± 1	1078.14 ± 1	1073.64 ± 1	1604.8 ± 1.2	1588.2 ± 1.2	1572 ± 1.2	1556.7 ± 1.2	1539.9 ± 1.2
x1 = 0.8908	1097.03 ± 1	1092.6 ± 1	1088.37 ± 1	1084.03 ± 1	1079.69 ± 1	1612.3 ± 1.2	1595.6 ± 1.2	1579.6 ± 1.2	1563.9 ± 1.2	1546.7 ± 1.2
x1 = 1	1103.07 ± 1	1098.99 ± 1	1094.9 ± 1	1090.82 ± 1	1086.75 ± 1	1617.7 ± 1.2	1601.3 ± 1.2	1585.4 ± 1.2	1570.4 ± 1.2	1553.5 ± 1.2

OCCCO [propan-1,3-diol] + O=C1CCCN1
Settings	mass density, 303.15 K [kg/m3]	mass density, 308.15 K [kg/m3]	mass density, 313.15 K [kg/m3]	mass density, 318.15 K [kg/m3]	mass density, 323.15 K [kg/m3]	speed of sound, 303.15 K [m/s]	speed of sound, 308.15 K [m/s]	speed of sound, 313.15 K [m/s]	speed of sound, 318.15 K [m/s]	speed of sound, 323.15 K [m/s]
x2 = 0	1046.56 ± 1	1043.43 ± 1	1040.28 ± 1	1037.11 ± 1	1033.92 ± 1	1617.6 ± 1.3	1606.2 ± 1.3	1594.8 ± 1.3	1583.5 ± 1.3	1572.1 ± 1.3
x2 = 0.1108	1052.98 ± 1	1049.7 ± 1	1046.4 ± 1	1043.08 ± 1	1039.74 ± 1	1619.8 ± 1.3	1607.5 ± 1.3	1595.3 ± 1.3	1583.4 ± 1.3	1571.2 ± 1.3
x2 = 0.2172	1059.11 ± 1	1055.69 ± 1	1052.25 ± 1	1048.8 ± 1	1045.34 ± 1	1621.2 ± 1.3	1608.3 ± 1.3	1595.4 ± 1.3	1582.9 ± 1.3	1569.9 ± 1.3
x2 = 0.3044	1064.1 ± 1	1060.58 ± 1	1057.04 ± 1	1053.49 ± 1	1049.93 ± 1	1621.9 ± 1.2	1608.6 ± 1.2	1595.3 ± 1.2	1582.3 ± 1.2	1568.7 ± 1.2
x2 = 0.4174	1070.53 ± 1	1066.89 ± 1	1063.24 ± 1	1059.57 ± 1	1055.89 ± 1	1622.4 ± 1.2	1608.5 ± 1.2	1594.6 ± 1.2	1581.1 ± 1.2	1566.8 ± 1.2
x2 = 0.5076	1075.64 ± 1	1071.91 ± 1	1068.17 ± 1	1064.41 ± 1	1060.65 ± 1	1622.4 ± 1.2	1608 ± 1.2	1593.7 ± 1.2	1579.9 ± 1.2	1565.1 ± 1.2
x2 = 0.6177	1081.83 ± 1	1078 ± 1	1074.17 ± 1	1070.32 ± 1	1066.47 ± 1	1621.9 ± 1.2	1607 ± 1.2	1592.3 ± 1.2	1578.2 ± 1.2	1562.8 ± 1.2
x2 = 0.6909	1085.92 ± 1	1082.04 ± 1	1078.15 ± 1	1074.25 ± 1	1070.34 ± 1	1621.4 ± 1.2	1606.2 ± 1.2	1591.2 ± 1.2	1576.8 ± 1.2	1561.1 ± 1.2
x2 = 0.8139	1092.77 ± 1	1088.8 ± 1	1084.83 ± 1	1080.85 ± 1	1076.87 ± 1	1620.2 ± 1.2	1604.5 ± 1.2	1589 ± 1.2	1574.4 ± 1.2	1558.2 ± 1.2
x2 = 0.8736	1096.07 ± 1	1092.07 ± 1	1088.06 ± 1	1084.05 ± 1	1080.04 ± 1	1619.5 ± 1.2	1603.5 ± 1.2	1587.9 ± 1.2	1573.1 ± 1.2	1556.8 ± 1.2
